In the supplement of paper PMC11061612:

Experiments:
Assay in all cases: Bliss excess, mean over the matrix (fraction); higher = more synergy
786-0 (Kidney Carcinoma) = system: 786-0 (Kidney Carcinoma)
Outline: (§1)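 Cell lines in DMEM/F12 or RPMI with 10% FBS were plated in 1536-well plates, held 24 hours at 37°C, 5% CO2, then given two-drug dose matrices for 72 hours (DMSO typically 0.2%). Viability was read by CellTiter-Glo 2.0 luminescence and scaled as inhibition from 0 (vehicle wells) to 1 (blank wells). Combination Emax is the second-highest inhibition in the matrix; Bliss excess is observed combination effect minus expected EA + EB − EA·EB, EA and EB being single-agent effects.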

[1] = system: AsPC-1 (Pancreatic Carcinoma)
Outline: as §1

[2] = system: BALL-1 (B-Lymphoblastic Leukemia)
Outline: as §1

[3] = system: Becker (Low Grade Glioma)
Outline: as §1

[4] = system: FLO-1 (Esophageal Adenocarcinoma)
Outline: as §1

[5] = system: HSC-3 (Oral Cavity Carcinoma)
Outline: as §1

HuO-3N1 (Osteosarcoma) = system: HuO-3N1 (Osteosarcoma)
Outline: as §1

[6] = system: KYSE-70 (Esophageal Squamous Cell Carcinoma)
Outline: as §1

[7] = system: LAMA-84 (Chronic Myelogenous Leukemia)
Outline: as §1

[8] = system: LOUCY (T-Lymphoblastic Leukemia)
Outline: as §1

[9] = system: NCI-H1155 (Non-Small Cell Lung Carcinoma)
Outline: as §1

[10] = system: NCI-H1563 (Lung Adenocarcinoma)
Outline: as §1

[11] = system: NCI-H1623 (Lung Adenocarcinoma)
Outline: as §1

[12] = system: NCI-H1755 (Lung Adenocarcinoma)
Outline: as §1

[13] = system: NCI-H810 (Non-Small Cell Lung Carcinoma)
Outline: as §1

[14] = system: PC-14 (Lung Adenocarcinoma)
Outline: as §1

[15] = system: RERF-LC-KJ (Lung Adenocarcinoma)
Outline: as §1

[16] = system: RPMI-8866 (Chronic Myelogenous Leukemia)
Outline: as §1

RT4 (Bladder Carcinoma) = system: RT4 (Bladder Carcinoma)
Outline: as §1

[17] = system: SK-MM-2 (Plasma Cell Myeloma)
Outline: as §1

SMILES | Bliss excess (786-0 (Kidney Carcinoma)) | Bliss excess [1] | Bliss excess [2] | Bliss excess [3] | Bliss excess [4] | Bliss excess [5] | Bliss excess (HuO-3N1 (Osteosarcoma)) | Bliss excess [6] | Bliss excess [7] | Bliss excess [8] | Bliss excess [9] | Bliss excess [10] | Bliss excess [11] | Bliss excess [12] | Bliss excess [13] | Bliss excess [14] | Bliss excess [15] | Bliss excess [16] | Bliss excess (RT4 (Bladder Carcinoma)) | Bliss excess [17]
Cc1c2c(nn1C)CSCc1cc(n(C)n1)CSc1cc(c3ccccc3c1)OCCCc1c(C(=O)O)n(C)c3c-2c(Cl)ccc13 [AZD5991] + C1CN(CCC1(C(=O)N[C@@H](CCO)C2=CC=C(C=C2)Cl)N)C3=NC=NC4=C3C=CN4 [Capivasertib] (first compound max 1 µM, 7x7, partner max 3 µM) | -0.0189 | -0.0881 | 0.0369 | -0.0169 | -0.0072 | -0.0539 | 0.0122 | 0.0065 | 0.0007 | 0.0143 | 0.0369 | 0.0837 | 0.0471 | 0.0186 | 0.0083 | 0.0145 | -0.0112 | -0.0525 | 0.023 | -0.0186
Cc1c2c(nn1C)CSCc1cc(n(C)n1)CSc1cc(c3ccccc3c1)OCCCc1c(C(=O)O)n(C)c3c-2c(Cl)ccc13 [AZD5991] + C=CCn1c(=O)c2cnc(Nc3ccc(N4CCN(C)CC4)cc3)nc2n1-c1cccc(C(C)(C)O)n1 [AZD1775] (first compound max 1 µM, partner max 1 µM) | -0.0387 | 0.0293 | -0.0181 | -0.0319 | -0.0047 | 0.0184 | 0.006 | 0.015 | 0.0422 | -0.003 | 0.0707 | 0.0004 | 0.0167 | 0.0006 | 0.0025 | -0.001 | 0.0255 | -0.0441 | 0.0351 | -0.112
Cc1c2c(nn1C)CSCc1cc(n(C)n1)CSc1cc(c3ccccc3c1)OCCCc1c(C(=O)O)n(C)c3c-2c(Cl)ccc13 [AZD5991] + CC1(C)CCC(CN2CCN(c3ccc(C(=O)NS(=O)(=O)c4ccc(NCC5CCOCC5)c([N+](=O)[O-])c4)c(Oc4cnc5[nH]ccc5c4)c3)CC2)=C(c2ccc(Cl)cc2)C1 [Venetoclax] (first compound max 1 µM, 7x7, partner max 1 µM) | -0.034 | -0.0698 | 0.117 | -0.0033 | -0.0597 | 0.005 | 0.0087 | -0.0296 | -0.0185 | 0.154 | -0.0079 | 0.0236 | 0.0111 | -0.0422 | -0.0267 | 0.0054 | 0.0047 | -0.0138 | 0.135 | 0.0209
Cc1c2c(nn1C)CSCc1cc(n(C)n1)CSc1cc(c3ccccc3c1)OCCCc1c(C(=O)O)n(C)c3c-2c(Cl)ccc13 [AZD5991] + CCN(CCO)CCCOc1ccc2c(Nc3cc(CC(=O)Nc4cccc(F)c4)[nH]n3)ncnc2c1 [AZD2811] (first compound max 1 µM, 7x7, partner max 1 µM) | -0.0142 | -0.0331 | 0.213 | -0.0165 | 0.0347 | 0.0617 | 0.0023 | 0.0651 | 0.128 | -0.0389 | 0.0911 | -0.0248 | 0.0711 | 0.0561 | 0.114 | 0.0381 | 0.0402 | 0.149 | 0.11 | -0.0451
Cc1c2c(nn1C)CSCc1cc(n(C)n1)CSc1cc(c3ccccc3c1)OCCCc1c(C(=O)O)n(C)c3c-2c(Cl)ccc13 [AZD5991] + CN(C)CCCOc1ccc(-c2ccc3ncc4c(c3c2)n(C2CCOCC2)c(=O)n4C)cn1 [AZD0156] (first compound max 1 µM, 7x7, partner max 1 µM) | -0.0109 | -0.0137 | 0.0361 | -0.0128 | -0.0135 | 0.0527 | -0.0067 | 0.0286 | -0.0051 | 0.0428 | 0.0521 | -0.009 | -0.015 | -0.0214 | -0.0034 | 0.0236 | -0.0296 | -0.026 | 0.0149 | 0.0254
Cc1c2c(nn1C)CSCc1cc(n(C)n1)CSc1cc(c3ccccc3c1)OCCCc1c(C(=O)O)n(C)c3c-2c(Cl)ccc13 [AZD5991] + C[C@@H]1COCCN1C2=NC(=NC(=C2)C3(CC3)[S@](=N)(=O)C)C4=C5C=CNC5=NC=C4 [AZD6738] (first compound max 1 µM, 7x7, partner max 10 µM) | -0.0098 | 0.0026 | 0.0406 | 0.0152 | -0.0301 | 0.0094 | 0.0446 | 0.0485 | -0.0056 | -0.0398 | 0.0521 | 0.0224 | 0.0581 | -0.0171 | 0.0552 | 0.0229 | 0.0331 | 0.0013 | 0.0537 | -0.0607
Cc1c2c(nn1C)CSCc1cc(n(C)n1)CSc1cc(c3ccccc3c1)OCCCc1c(C(=O)O)n(C)c3c-2c(Cl)ccc13 [AZD5991] + C[C@@H](Nc1cc(F)cc(F)c1)c1cc(C(=O)N(C)C)cc2c(=O)cc(N3CCOCC3)oc12 [AZD8186] (first compound max 1 µM, 7x7, partner max 3 µM) | 0.0005 | -0.0414 | -0.0163 | 0.0192 | -0.0486 | -0.001 | 0.0324 | -0.0136 | -0.0037 | -0.0772 | -0.0105 | 0.0003 | -0.0133 | 0.0317 | -0.034 | 0.0129 | 0.0598 | -0.041 | 0.0434 | -0.0419
Cc1c2c(nn1C)CSCc1cc(n(C)n1)CSc1cc(c3ccccc3c1)OCCCc1c(C(=O)O)n(C)c3c-2c(Cl)ccc13 [AZD5991] + Cc1cc2ncnn2cc1Nc1ncc2c(n1)n(C1CCOCC1)c(=O)n2C [AZD7648] (first compound max 1 µM, 7x7, partner max 10 µM) | -0.0341 | -0.0517 | -0.0064 | 0.0005 | -0.0408 | -0.0448 | -0.0229 | 0.0024 | -0.01 | -0.0479 | -0.017 | -0.0185 | 0.0374 | 0.0189 | -0.0484 | -0.0088 | 0.0171 | -0.0497 | -0.0301 | 0.0087
Cc1c2c(nn1C)CSCc1cc(n(C)n1)CSc1cc(c3ccccc3c1)OCCCc1c(C(=O)O)n(C)c3c-2c(Cl)ccc13 [AZD5991] + Cn1cnc2c(F)c(Nc3ccc(Br)cc3Cl)c(C(=O)NOCCO)cc21 [Selumetinib] (first compound max 1 µM, 7x7, partner max 3 µM) | 0.0107 | -0.0325 | -0.0064 | -0.0092 | -0.055 | 0.0137 | -0.0008 | 0.0244 | 0.102 | 0.0129 | 0.0008 | 0.0158 | 0.0184 | 0.0427 | -0.0133 | 0.0286 | 0.0466 | -0.0462 | 0.0266 | -0.0194
C[C@@H]1COCCN1c1cc(C2([S@](C)(=N)=O)CC2)nc(-c2ccnc3[nH]ccc23)n1 [AZD6738] + O=C(c1cc(Cc2n[nH]c(=O)c3ccccc23)ccc1F)N1CCN(C(=O)C2CC2)CC1 [Olaparib] (first compound max 10 µM, 7x7, partner max 10 µM) | 0.0473 | -0.027 | -0.0204 | -0.0077 | -0.0348 | 0.0043 | -0.0071 | 0.021 | 0.0233 | -0.0284 | 0.0374 | -0.0116 | -0.0325 | -0.0131 | -0.008 | 0.0132 | 0.0228 | -0.0143 | 0.0357 | -0.0084
Cc1cc2ncnn2cc1Nc1ncc2c(n1)n(C1CCOCC1)c(=O)n2C [AZD7648] + C=CCn1c(=O)c2cnc(Nc3ccc(N4CCN(C)CC4)cc3)nc2n1-c1cccc(C(C)(C)O)n1 [AZD1775] (first compound max 10 µM, partner max 1 µM) | 0.0502 | 0.0558 | -0.0169 | -0.0269 | -0.023 | -0.0488 | -0.0205 | 0.0184 | 0.046 | 0.0464 | 0.033 | -0.0041 | 0.0376 | 0.0084 | -0.0103 | -0.025 | 0.0509 | -0.0616 | 0.0218 | -0.0214
Cc1cc2ncnn2cc1Nc1ncc2c(n1)n(C1CCOCC1)c(=O)n2C [AZD7648] + CCN(CCO)CCCOc1ccc2c(Nc3cc(CC(=O)Nc4cccc(F)c4)[nH]n3)ncnc2c1 [AZD2811] (first compound max 10 µM, 7x7, partner max 1 µM) | 0.0259 | -0.0312 | 0.13 | 0.0154 | 0.0161 | 0.0012 | -0.0184 | 0.0476 | 0.115 | -0.043 | 0.0796 | 0.0036 | -0.0311 | 0.0038 | -0.0162 | 0.0257 | 0.0428 | -0.0233 | 0.0534 | -0.0115
Cc1cc2ncnn2cc1Nc1ncc2c(n1)n(C1CCOCC1)c(=O)n2C [AZD7648] + CN(C)CCCOc1ccc(-c2ccc3ncc4c(c3c2)n(C2CCOCC2)c(=O)n4C)cn1 [AZD0156] (first compound max 10 µM, 7x7, partner max 1 µM) | 0.0224 | -0.0291 | -0.0108 | 0.0066 | -0.0665 | 0.0174 | -0.0416 | 0.0213 | -0.0024 | 0.0007 | 0.0397 | -0.0164 | -0.0209 | 0.0118 | 0.0125 | 0.0186 | 0.0285 | -0.0363 | 0.0212 | -0.0552
Cc1cc2ncnn2cc1Nc1ncc2c(n1)n(C1CCOCC1)c(=O)n2C [AZD7648] + C[C@@H]1COCCN1C2=NC(=NC(=C2)C3(CC3)[S@](=N)(=O)C)C4=C5C=CNC5=NC=C4 [AZD6738] (first compound max 10 µM, 7x7, partner max 10 µM) | 0 | 0.0133 | 0.0025 | -0.0207 | -0.0191 | -0.0299 | 0.0042 | 0.0213 | -0.0284 | 0.0271 | 0.0038 | 0.0367 | 0.0359 | 0.0513 | -0.0367 | 0.0031 | 0.0386 | -0.028 | 0.0354 | 0.0022
